Reference: PubChem BioAssay AID179 (DTP/NCI, 2004)
Where “and” joins values, the source holds several entries; their conditions need not be identical. Equal values may be shown once. Calls of active or inactive are those of the source.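 Rule for the calls: active = compounds giving half or more protection of infected cells from virus-caused growth loss, again on retest; inactive = the rest.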 Where a SMILES comes first, the peptide text is derived from it.

System: CEM cells HIV-1 protection, formazan growth assay
Assay: NCI AIDS Antiviral Assay
Details: for IC50: measured here: growth of uninfected CEM cells
How it was run: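 Protection of CEM cells against HIV-1 was scored from cell growth (soluble formazan) across five concentrations, with parallel uninfected cells. Lack of protection may reflect toxicity.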

Row | Structure (SMILES) | EC50 [µM] | IC50 | outcome
1 | CC12Nc3ccccc3C1=C(c1ccccc1)CC1C(=O)OC(=O)C12 (stereo not drawn) | > 15.8 | > 15.8 µM | –
2 | CCN1C(=O)c2cc(=O)[nH]c(O)c2C1C (stereo not drawn) | > 468 | > 468 µM | –
3 | COC(=O)Cc1cccc2c1CCC2=O | > 200 | > 200 µM | –
4 | Cc1ccc2c(c1)C1(C)OC(CC(N)C1O)O2 (stereo not drawn) | – | – | inactive
5 | O=C(Nc1cccc(Cl)c1)C(=O)C(C(=O)c1ccc2ccccc2c1)C1OC(=O)c2ccccc21 (stereo not drawn) | > 74.1 | 33.9 µM | –
6 | O=C1NC(=O)C2C3C(C(O)(c4ccccc4)c4ccccn4)=CC(/C3=C(\c3ccccc3)c3ccccn3)C12 (stereo not drawn) | > 200 | 53.7 µM | –
7 | CNC(=O)c1n[nH][nH]c1=O | > 200 | > 200 µM | –
8 | COc1ccc(-c2cc(-c3cc(C)cc(Br)c3O)no2)cc1 | > 200 | > 200 µM | –
9 | Cc1cc(C)nc(NS(=O)(=O)c2ccc(NNc3c4ccccc4nc4c(C(=O)Nc5ccc(S(=O)(=O)Nc6ncccn6)cc5)cccc34)cc2)n1 | > 200 | 29.5 µM | –
10 | O=C1NNC2NC(=O)C3(NN2C1=O)c1ccccc1-c1ccccc13 (stereo not drawn) | > 100 | > 100 µM | –
11 | N#CCC(=O)NC1C2CC3CC(C2)CC1C3 (stereo not drawn) | > 229 | 34.7 µM | –
12 | c1ccc(C(=C2C3CCC2C2CSCC32)c2ccccc2)cc1 (stereo not drawn) | > 93.3 | 46.8 µM | –
13 | COc1ccc2c(c1OC)C1N(C)CCc3cc4c(cc3C1(OC)C2=O)OCO4 (stereo not drawn) | – | – | inactive
14 | Cc1cccc(C)c1NC(=O)CCCC(=O)C(C#N)c1ccccc1 (stereo not drawn) | > 741 | > 741 µM | –
15 | CC(=O)/C=C1/C(=O)C(CC(C)C)=C1CC(C)C | 141 | > 200 µM | –
16 | COc1ccc(-c2nnc(CCCCCCCCc3nnc(-c4ccc(OC)cc4)n3N)n2N)cc1 | > 200 | > 200 µM | –
17 | COc1cc(NCCN2CCN(CCNc3cc(OC)cc4cccnc34)CC2)c2ncccc2c1 | > 50.1 | 45.7 µM | –
18 | CCCCN1C(=O)[C@@H]2[C@H](c3ccccc3O)C(c3ccccc3O)[C@@H]2C1=O (stereo partly drawn) | > 138 | 30.2 µM | –
19 | CCOC(=O)/C(C1=NCCN1C)=C(\O)c1ccccc1 | > 912 | > 912 µM | –
20 | O=C1NN(C2=NNC3(C(=O)N2)c2ccccc2-c2ccccc23)C(c2ccccc2)=N/C1=C/c1ccc(Cl)cc1 | > 100 | 70.8 µM | –
21 | O=P(O)(O)C1(P(=O)(O)O)CC1 | > 251 | > 251 µM | –
22 | O=c1[nH]c(CCc2ccccc2)nc2ccccc12 | > 7.94 | > 7.94 µM | –

Row | Structure (SMILES) | EC50 [µM] | IC50 | outcome
23 | COc1ccc(C[C@H](N)C(=O)N2C[C@@H](CO)C[C@@H](n3ccc(=O)[nH]c3=O)C2)cc1 | > 309 | > 309 µM | –
24 | CC(C)(C)OC(=O)/C=C/C(=O)O/C=C/[N+](=O)[O-] | > 200 | > 200 µM | –
25 | CCCCCCCCC[C@@H]1C[C@H](O)[C@H](Cc2ccccc2)N1C(=O)OC(C)(C)C | > 200 | 35.5 µM | –
26 | CC1(C)N=[N+]([O-])C1(C)C | > 200 | > 200 µM | –
27 | NCCCN(CCCCN(CCCN)Cc1ccccc1)Cc1ccccc1 | 64.6 | 70.8 µM | –
28 | c1csc(-c2sc(-c3ccsc3)cc2Cc2ccsc2)c1 | – | – | inactive
29 | NS(=O)(=O)c1ccc(NC(=O)/C=C\C(=O)O)cc1 | > 200 | > 200 µM | –
30 | O=C(O)CCCc1ccc(N(CCCl)CCCl)cc1 | > 200 | 14.8 µM | –
31 | BrCc1ccc2ccc3ccc(CBr)nc3c2n1 | > 200 | 3.72 µM | –
32 | C/C(=N/NC(=S)N(C)CCc1ccccn1)c1cnccn1 | > 0.2 | 0.0178 µM | –
33 | Cc1nc(C)c(C(=O)NNC(=O)c2ccccc2)cc1C(=O)NNC(=O)c1ccccc1 | > 200 | > 200 µM | –
34 | Nc1ccnc2c1ncn2[C@H]1C[C@H](O)[C@@H](CO)O1 | > 200 | > 200 µM | –
35 | C=Cc1c2[n-]c(c1C)/C=c1\[n-]/c(c(C)c1C=C)=C\c1[n-]c(c(CCC(=O)O)c1C)/C=c1\[n-]/c(c(C)c1CCC(=O)O)=C\2.[Fe+4] | > 14.5 | > 14.5 µM | –
36 | CC(C)c1nc2c(c(=O)o1)CCS2 | > 182 | > 182 µM | –
37 | COc1ccc(C2NCCc3c2[nH]c2ccccc32)cc1 (stereo not drawn) | – | – | inactive
38 | O=C1/C(=C/c2ccc(Cl)cc2)Cc2ccccc21 | > 5.62 | > 5.62 µM | –
39 | CCN=C(c1ccc(NC(=O)c2ccc(C(=O)Nc3ccc(C(=NCC)N(CC)CC)cc3)cc2)cc1)N(CC)CC | > 200 | 64.6 µM | –
40 | CN1C(=S)N2CCCCCCCC2C(C#N)=C1N (stereo not drawn) | > 200 | > 200 µM | –
41 | CC1(Cl)C(=O)NC(=O)NC1O (stereo not drawn) | > 200 | > 200 µM | –
42 | CSCCOC(=O)C(=[N+]=[N-])c1ccc([N+](=O)[O-])cc1 | – | – | inactive
43 | Cn1c(-c2ccc(/C=N/N=C(\N)N/N=C/c3ccc(-c4c[n+]5ccsc5n4C)cc3)cc2)c[n+]2ccsc12 | 6.03 | 120 µM | –
44 | O=C1C2C=CC(C3C=CC2N(Cc2ccccc2)C3=O)N1Cc1ccccc1 | – | – | inactive

Row | Structure (SMILES) | EC50 [µM] | IC50 | outcome
45 | CCOP(=O)(/C=C/c1cc(OC)ccc1OC)OCC | > 832 | 355 µM and 158 µM | –
46 | c1ccc2c3c(ccc2c1)CSCc1ccc2ccccc2c1-3 | > 200 | – | –
47 | CS(=O)(=O)OCC(CCl)(CCl)CCl | > 933 | 661 µM | –
48 | CCOC(=O)C(CN1CCN(CC(NC=O)(C(=O)OCC)C(=O)OCC)CC1)(NC=O)C(=O)OCC | > 200 | 35.5 µM | –
49 | Cc1cccc(NC(=O)Nc2ccccc2F)n1 | > 200 | > 200 µM | –
50 | CC(=O)O[C@@H]1CCN(Cc2ccccc2)C[C@@H]1CN(C(C)=O)C12CC3CC(CC(C3)C1)C2 | > 8.51 | 8.32 µM | –
51 | CO[C@@H]1/C=C\C=C(/C)C(=O)NC2=CC(=O)C(NCCN(C)C)=C(C[C@@H](C)C[C@@H](OC)[C@@H](O)[C@H](C)/C=C(\C)[C@H]1OC(N)=O)C2=O | > 2 | 0.102 µM | –
52 | O=C(Cn1ccnc1[N+](=O)[O-])NCc1ccccc1 | – | – | inactive
53 | O=C1C2N=NNC2C(=O)N1c1ccccc1 (stereo not drawn) | > 200 | > 200 µM | –
54 | CCCCOC(=O)C(=O)C(CC(CC)C(=O)c1ccccc1)C(=O)C=C(C)C (stereo not drawn) | > 646 | > 646 µM | –
55 | O=[N+]([O-])c1ccc(OCc2nc3ccccc3[nH]2)cc1 | > 200 | 87.1 µM | –
56 | Cc1nnc2n(c1=O)CCN2C | > 200 | > 200 µM | –
57 | Cc1cc(C)c(C2CC(O)C(CO)O2)cc1C (stereo not drawn) | > 200 | > 200 µM | –
58 | Cc1ncc(C(N)=O)c2c1OC(C)(C)OC2 | > 200 | > 200 µM | –
59 | Cn1c(/C=C(\O)c2ccc(Cl)cc2)nc2ccccc21 | > 91.2 | > 91.2 µM | –
60 | Cc1cc(O)c2c(c1)C(C1OC(CO)C(O)C(O)C1O)c1cc(O)cc(O)c1C2=O (stereo not drawn) | > 200 | > 200 µM | –
61 | Cc1ccc2nc(NC(=O)C(=O)C3C(=O)NC(=S)NC3=O)sc2c1 | > 692 | 417 µM | –
62 | Cc1ccc2c(c1)C(=O)/C(=N/Nc1ccc(Cl)cc1)CCO2 | > 200 | 110 µM | –
63 | CC(=O)C1C(=O)C(=O)N(c2cccc(C)c2C)C1=O (stereo not drawn) | > 200 | > 200 µM | –
64 | C=CCCCC1CCCNC1=O (stereo not drawn) | > 1480 | 1150 µM | –
65 | SCc1ccc(-c2ccc(CS)cc2)cc1 | > 4.27 | > 4.27 µM | –
66 | CN1C(=Nc2ccccc2)SC1=Nc1ccccc1 | – | – | inactive

Row | Structure (SMILES) | EC50 [µM] | IC50 | outcome
67 | CCCC(=O)NC(Nc1ccc(F)cc1)(C(F)(F)F)C(F)(F)F | – | – | inactive
68 | c1ccc2c3csccc-3nc2c1 | > 200 | 97.7 µM | –
69 | CCC(C)[C@@H]1NC(=O)[C@@H]2CCCN2C(=O)C(CC(O)CCl)OC(=O)CCNC(=O)[C@H](C)N(C)C(=O)[C@H](C(C)C)N(C)C1=O (stereo partly drawn) (HELM PEPTIDE1{[CCC(C)[C@H](N[*:1])C(=O)[*:2]].[meV].[meA].[bAla].[O=C(C(CC(O)CCl)O[*:1])[*:2]].P}$PEPTIDE1,PEPTIDE1,1:R1-6:R2$$$V2.0) | > 2 | 0.11 µM | –
70 | CC1=C(C)C2(OC1=O)C(O)C(C)[C@]1(O)CCC3C4CC=C5CC=CC(=O)[C@]5(C)C4C[C@@]2(O)[C@@]31C (stereo partly drawn) | – | – | inactive
71 | Cc1cccc(N=Nc2c(C)nn(C(=O)c3ccccc3)c2C)c1 | – | – | inactive
72 | O=c1c2cc(Br)ccc2[nH]c(=S)n1-c1ccccc1 | > 40.7 | > 40.7 µM | –
73 | COc1ccc2nc3cccc([N+](=O)[O-])c3c(NCCN(CCO)CCO)c2c1 | > 2 | 0.0977 µM | –
74 | Cc1nc(Cl)c(Cl)c(Cl)n1 | – | – | inactive
75 | CC1(Br)C(=O)NC(=O)N(C2C=CC(CO)O2)C1N=[N+]=[N-] (stereo not drawn) | 0.724 | 7.24 µM | –
76 | O=c1[nH]c(N2CCOCC2)nc2cc3ccccc3cc12 | > 155 | > 155 µM | –
77 | C=C1C(=O)O[C@H]2[C@H](OC(C)=O)[C@@H](C)CCC/C(C)=C/CC[C@@]3(C)O[C@@H]3C[C@@H]12 | > 126 | 5.62 µM | –
78 | NC(=O)c1ncn(C2CCC(CP(=O)(O)O)C2)c1N (stereo not drawn) | > 200 | > 200 µM | –
79 | CCN(CC)P1(=S)OCC(C)O1 (stereo not drawn) | > 324 | 309 µM | –
80 | O=C1C2C3CCC(C3)C2S(=O)(=O)C2C3CCC(C3)C12 (stereo not drawn) | > 200 | > 200 µM | –
81 | C=CC1(C)CC(=O)C2(O)C(O1)C(OC(C)=O)C(OC(C)=O)C1C2C(OC(C)=O)CCC1(C)C (stereo not drawn) | > 26.9 | > 26.9 µM | –
82 | COC(=O)C(COC(C)=O)NC(=O)/C=C/c1ccc(O)c(OC(C)=O)c1 (stereo not drawn) | > 200 | 10 µM | –
83 | O=c1[nH]c2ncsc2c(=O)n1OS(=O)(=O)c1ccccc1 | > 200 | 12.9 µM | –
84 | O=C(/C=C/c1ccccc1O)c1ccc([N+](=O)[O-])cc1 | > 95.5 | 53.7 µM | –
85 | CCOC(=O)/C(=C\c1ccc(Cl)cc1)[Se]c1ccccc1 | > 97.7 | > 97.7 µM | –
86 | C=CCOc1cc2c(c3oc(=O)cc(CCC)c13)[C@@H](O)[C@H](C)[C@@H](C)O2 | 6.61 | 13.5 µM | –
87 | COC(=O)CNC(=O)Nc1cc(N2C(=O)ON3C2C(C)(C)N(O)C3(C)C)ccc1C (stereo not drawn) | > 200 | 170 µM | –
88 | Cc1ccc(C2=Nc3ccccc3NC(=O)C2)cc1 | 20.4 | 75.9 µM | –
